In the data set the test system is erythrocytes of female and male blood donor. Briefly: Hemolysis study of solvents. It is filed as cell-based. The settings on record: for Hemolysis [%]: female and male blood donor (n = 4). Here is the method: To outline the suitability of PEG500DME as a solvent for parenteral use, a hemolysis study was performed: […]
The mark [1] stands for this setting: dilution 1:2 with 0.9% NaCl solution.
Where [2] appears, read: dilution 1:4 with 0.9% NaCl solution.
The mark [3] stands for this setting: dilution 1:8 with 0.9% NaCl solution.
Setting [4] is: dilution 1:16 with 0.9% NaCl solution.
Where [5] appears, read: dilution 1:32 with 0.9% NaCl solution.
Where [6] appears, read: dilution 1:64 with 0.9% NaCl solution.
Where [7] appears, read: dilution 1:128 with 0.9% NaCl solution.

This is an account of results in patent publication US9155696B2, “Pharmaceutical compositions” (Novartis AG, priority 2008, dated 2015).

Turning to `CN1CCCC1=O` [NMP, 1-methyl-2-pyrrolidinone], the “Hemolysis [%] in donor one” value came out at 28% (dilution 0 (pure solvent)); 0% under setting [1]; 0% under setting [2]; 0% under setting [3]; 0% under setting [4]; 0% under setting [5]. Further, the “Hemolysis [%] in donor one” value came to 0% under setting [6] and 0% under setting [7]. Moreover, the “Hemolysis [%] in donor two” value reads like this: (dilution 0 (pure solvent)) 54%; under setting [1], 10%; under setting [2], 1%; under setting [3], 1%; under setting [4], 1%; under setting [5], 1%. In addition, the “Hemolysis [%] in donor two” value was determined as 1% under setting [6] and 1% under setting [7]. Also, the “Hemolysis [%]” value stood at 7.8 ± 5.6% under setting [1]; 0.5 ± 0.6% under setting [2]; 0.3 ± 0.5% under setting [3]; 0.3 ± 0.5% under setting [4]; 0.3 ± 0.5% under setting [5]; 0.3 ± 0.5% under setting [6]. In addition, the “Hemolysis [%]” value under setting [7] came to 0.3 ± 0.5%.
